Tests used:
[1] = tested on: MKN45 cells; experiment: MKN45 cell proliferation assay (CellTiter-Glo); type: cell-based; conditions: Homo sapiens, MKN-45, 72 h; MKN45 cell line; 3 days incubation; at least duplicate experiments; read-out: Prolif. IC50
[2] = biological target: T1, Aurora B (Homo sapiens, UniProt Q96GD4); experiment: Aurora B cell mechanistic assay (HT-29), phospho-Histone H3 (Ser10) ELISA; type: cell-based; conditions: HT-29 cell line; inhibition of phospho-Histone H3 (Ser10); at least duplicate experiments (italicized if single experiment); read-out: Aurora B mech IC50
T1 construct: HT-29 cells grown in complete growth media
T1 sequence (Q96GD4 whole entry): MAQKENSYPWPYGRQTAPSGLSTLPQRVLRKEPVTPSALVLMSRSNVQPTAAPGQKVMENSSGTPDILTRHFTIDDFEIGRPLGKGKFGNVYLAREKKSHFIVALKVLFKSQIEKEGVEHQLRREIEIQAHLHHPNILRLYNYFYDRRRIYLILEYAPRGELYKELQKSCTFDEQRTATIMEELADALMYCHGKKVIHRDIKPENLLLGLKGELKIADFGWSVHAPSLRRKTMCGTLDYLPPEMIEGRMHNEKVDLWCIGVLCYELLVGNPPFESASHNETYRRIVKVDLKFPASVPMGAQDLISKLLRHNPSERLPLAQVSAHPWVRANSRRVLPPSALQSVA
In short: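 HT-29 cells treated 1 h at 37 °C with serially diluted compound, then 100 nM Calyculin A added for 30 min. Lysates assayed by phospho-Histone H3 (Ser10) ELISA at 450 nm; normalized to DMSO (100%) and a reference Aurora B inhibitor (full inhibition); IC50 by four-parameter fit.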

Structure (SMILES)	IC50 [1] [nM]	IC50 [2] [nM]
[2H]C([2H])([2H])c1c(-c2cnc3[nH]cc([C@H](C)c4c(OC(F)F)ccc(F)c4Cl)c3c2)cnn1[C@H]1CC[C@H](O)CC1 [Example 85, trans-4-[4-(3-{(1S)-1-[2-Chloro-6-(difluoromethoxy)-3-fluorophenyl]ethyl}-1H-pyrrolo[2,3-b]pyridin-5-yl)-5-(^2H3)methyl-1H-pyrazol-1-yl]cyclohexanol]	≤ 50	200 to 1000
COc1ccc(F)c(Cl)c1[C@@H](C)c1c[nH]c2ncc(-c3c(C)nn(C)c3Cl)cc12 [Example 63, 5-(5-Chloro-1,3-dimethyl-1H-pyrazol-4-yl)-3-[(1S)-1-(2-chloro-3-fluoro-6-methoxyphenyl)ethyl]-1H-pyrrolo[2,3-b]pyridine]	200 to 1000	> 1000
COc1ccc(F)c(Cl)c1[C@@H](C)c1c[nH]c2ncc(-c3c(C)nn(C)c3C)cc12 [Example 4, 3-[(1S)-1-(2-Chloro-3-fluoro-6-methoxyphenyl)ethyl]-5-(1,3,5-trimethyl-1H-pyrazol-4-yl)-1H-pyrrolo[2,3-b]pyridine]	200 to 1000	> 1000
COc1ccc(F)c(Cl)c1[C@@H](C)c1c[nH]c2ncc(-c3cncn3C)cc12 [Example 64, 3-[(1S)-1-(2-Chloro-3-fluoro-6-methoxyphenyl)ethyl]-5-(1-methyl-1H-imidazol-5-yl)-1H-pyrrolo[2,3-b]pyridine]	50 to 200	> 1000
C[C@H](c1c(OC(F)F)ccc(F)c1Cl)c1c[nH]c2ncc(-c3cnn([C@H]4CC[C@H](O)CC4)c3Cl)cc12 [Example 82, trans-4-[5-Chloro-4-(3-{(1S)-1-[2-chloro-6-(difluoromethoxy)-3-fluorophenyl]ethyl}-1H-pyrrolo[2,3-b]pyridin-5-yl)-1H-pyrazol-1-yl]cyclohexanol]	≤ 50	> 1000
COc1ccc(F)c(Cl)c1[C@@H](C)c1c[nH]c2ncc(-c3cnn([C@H]4CC[C@H](O)CC4)c3Cl)cc12 [Example 49, trans-4-(5-Chloro-4-{3-[(1S)-1-(2-chloro-3-fluoro-6-methoxyphenyl)ethyl]-1H-pyrrolo[2,3-b]pyridin-5-yl}-1H-pyrazol-1-yl)cyclohexanol]	≤ 50	> 1000
CCc1c(-c2cnc3[nH]cc([C@H](C)c4c(OC)ccc(F)c4Cl)c3c2)cnn1[C@H]1CC[C@H](O)CC1 [Example 48, trans-4-(4-{3-[(1S)-1-(2-Chloro-3-fluoro-6-methoxyphenyl)ethyl]-1H-pyrrolo[2,3-b]pyridin-5-yl}-5-ethyl-1H-pyrazol-1-yl)cyclohexanol]	≤ 50	> 1000
COc1ccc(F)c(Cl)c1[C@@H](C)c1c[nH]c2ncc(-c3c(C)nn(C)c3CO)cc12 [Example 45, (4-{3-[(1S)-1-(2-Chloro-3-fluoro-6-methoxyphenyl)ethyl]-1H-pyrrolo[2,3-b]pyridin-5-yl}-1,3-dimethyl-1H-pyrazol-5-yl)methanol]	200 to 1000	> 1000
COc1ccc(F)c(Cl)c1[C@@H](C)c1c[nH]c2ncc(-c3cnn([C@H]4CC[C@@H](O)CC4)c3C)cc12 [Example 52, cis-4-(4-{3-[(1S)-1-(2-Chloro-3-fluoro-6-methoxyphenyl)ethyl]-1H-pyrrolo[2,3-b]pyridin-5-yl}-5-methyl-1H-pyrazol-1-yl)cyclohexanol]	≤ 50	> 1000
COc1ccc(F)c(Cl)c1[C@@H](C)c1c[nH]c2ncc(-c3cn(C)nc3CO)cc12 [Example 42, (4-{3-[(1S)-1-(2-Chloro-3-fluoro-6-methoxyphenyl)ethyl]-1H-pyrrolo[2,3-b]pyridin-5-yl}-1-methyl-1H-pyrazol-3-yl)methanol]	50 to 200	200 to 1000
Cc1nn(C[C@H](O)CO)cc1-c1cnc2[nH]cc([C@H](C)c3c(OC(F)F)ccc(F)c3Cl)c2c1 [Example 71, (2S)-3-[4-(3-{(1S)-1-[2-Chloro-6-(difluoromethoxy)-3-fluorophenyl]ethyl}-1H-pyrrolo[2,3-b]pyridin-5-yl)-3-methyl-1H-pyrazol-1-yl]propane-1,2-diol]	≤ 50	50 to 200
COc1ccc(F)c(Cl)c1[C@@H](C)c1c[nH]c2ncc(-c3cnc(C)n3C)cc12 [Example 65, 3-[(1S)-1-(2-chloro-3-fluoro-6-methoxyphenyl)ethyl]-5-(1,2-dimethyl-1H-imidazol-5-yl)-1H-pyrrolo[2,3-b]pyridine]	50 to 200	> 1000
COc1ccc(F)c(Cl)c1[C@@H](C)c1c[nH]c2ncc(-c3cnn([C@H]4CC[C@H](C(=O)N(C)C)CC4)c3C)cc12 [Example 14, Trans-4-(4-{3-[(1S)-1-(2-chloro-3-fluoro-6-methoxyphenyl)ethyl]-1H-pyrrolo[2,3-b]pyridin-5-yl}-5-methyl-1H-pyrazol-1-yl)-N,N-dimethylcyclohexanecarboxamide]	≤ 50	> 1000
COc1ccc(F)c(Cl)c1[C@@H](C)c1c[nH]c2ncc(-c3cnn(C[C@H](O)CO)c3C)cc12 [Example 10, (2S)-3-(4-{3-[(1S)-1-(2-Chloro-3-fluoro-6-methoxyphenyl)ethyl]-1H-pyrrolo[2,3-b]pyridin-5-yl}-5-methyl-1H-pyrazol-1-yl)propane-1,2-diol]	≤ 50	200 to 1000
COc1ccc(F)c(Cl)c1[C@@H](C)c1c[nH]c2ncc(-c3c(C)nn([C@@H]4C[C@@H](O)[C@@H](O)C4)c3C)cc12 [Example 33, (1R,2S,4S)-4-(4-{3-[(1S)-1-(2-Chloro-3-fluoro-6-methoxyphenyl)ethyl]-1H-pyrrolo[2,3-b]pyridin-5-yl}-3,5-dimethyl-1H-pyrazol-1-yl)cyclopentane-1,2-diol]	≤ 50	> 1000
COc1ccc(F)c(Cl)c1[C@@H](C)c1c[nH]c2ncc(-c3cn(C)nc3Cl)cc12 [Example 60, 3-[(1S)-1-(2-chloro-3-fluoro-6-methoxyphenyl)ethyl]-5-(3-chloro-1-methyl-1H-pyrazol-4-yl)-1H-pyrrolo[2,3-b]pyridine]	50 to 200	200 to 1000
COc1ccc(F)c(Cl)c1[C@@H](C)c1c[nH]c2ncc(-c3cnn(C)c3C)cc12 [Example 3, 3-[(1S)-1-(2-Chloro-3-fluoro-6-methoxyphenyl)ethyl]-5-(1,5-dimethyl-1H-pyrazol-4-yl)-1H-pyrrolo[2,3-b]pyridine]	≤ 50	> 1000
Cc1c(-c2cnc3[nH]cc([C@H](C)c4c(O)ccc(F)c4Cl)c3c2)cnn1[C@H]1CC[C@H](O)CC1 [Example 102, 3-Chloro-4-fluoro-2-[(1S)-1-{5-[1-(trans-4-hydroxycyclohexyl)-5-methyl-1H-pyrazol-4-yl]-1H-pyrrolo[2,3-b]pyridin-3-yl}ethyl]phenol]	≤ 50	> 1000
CCc1nn(CC(C)(C)O)cc1-c1cnc2[nH]cc([C@H](C)c3c(OC)ccc(F)c3Cl)c2c1 [Example 12, 1-(4-{3-[(1S)-1-(2-Chloro-3-fluoro-6-methoxyphenyl)ethyl]-1H-pyrrolo[2,3-b]pyridin-5-yl}-3-ethyl-1H-pyrazol-1-yl)-2-methylpropan-2-ol]	50 to 200	> 1000
COc1ccc(F)c(Cl)c1[C@@H](C)c1c[nH]c2ncc(-c3cn(C)nc3OC)cc12 [Example 61, 3-[(1S)-1-(2-Chloro-3-fluoro-6-methoxyphenyl)ethyl]-5-(3-methoxy-1-methyl-1H-pyrazol-4-yl)-1H-pyrrolo[2,3-b]pyridine]	≤ 50	> 1000
